Activity and IC50 data for 24 compounds are collected here from ChEMBL document CHEMBL5154782, “Discovery of Potent PROTACs Targeting EGFR Mutants through the Optimization of Covalent EGFR Ligands” (J Med Chem, 2022).

Test [1] deals with von Hippel-Lindau disease tumor suppressor/Epidermal growth factor receptor (Homo sapiens), P00533+P40337 [L858R,T790M]. In words: Protac activity at VHL/EGFR L858R/T790M mutant in human NCI-H1975 cells assessed as induction of EGFR degradation at 100 nM incubated for 24 hrs by Western blot analysis relative to control. The test is classed as cell-based. On the technique in general: In western blotting, separated proteins are transferred to a membrane and probed.

Test [2] has as its system NCI-H1975. In words: Antiproliferative activity against human NCI-H1975 cells expressing EGFR L858R/T790M mutant assessed as inhibition of cell proliferation incubated for 72 hrs by MTT assay. The test is classed as functional, cell-based. The note with it: NCI-H1975, 72 h. For orientation: Formazan colour is commonly taken as a measure of viable cells.
Test [3] concerns HCC827. Briefly: Antiproliferative activity against human HCC827 cells expressing EGFR deletion19 mutant assessed as inhibition of cell proliferation incubated for 72 hrs by MTT assay. The test is classed as functional, cell-based. The note with it: HCC827, 72 h.
Test [4] deals with von Hippel-Lindau disease tumor suppressor/Epidermal growth factor receptor (Homo sapiens), P00533+P40337 [L858R,T790M]. Briefly: Protac activity at VHL/EGFR L858R/T790M mutant in human NCI-H1975 cells assessed as induction of EGFR degradation at 1000 nM incubated for 24 hrs by Western blot analysis relative to control. The test is classed as cell-based.
Test [5] shares this test system. Briefly: Protac activity at VHL/[…] cells assessed as induction of EGFR degradation at 100 nM incubated for 24 hrs by Western blot analysis relative to control. The test is classed as cell-based.
The test system is the same in test [6]. Briefly: Protac activity at VHL/[…] cells assessed as induction of EGFR degradation at 1000 nM incubated for 24 hrs by Western blot analysis relative to control. The test is classed as cell-based.
The test system is the same in test [7]. Briefly: Protac activity at VHL/EGFR L858R/T790M mutant in human NCI-H1975 cells assessed as induction of EGFR degradation at 10 nM incubated for 24 hrs by Western blot analysis relative to control. The test is classed as cell-based.
Test [8] has as its system von Hippel-Lindau disease tumor suppressor/Epidermal growth factor receptor (Homo sapiens), P00533+P40337 [UNDEFINED MUTATION]. In words: Protac activity at VHL/EGFR/deletion19 in human HCC827 cells assessed as induction of EGFR degradation at 3 nM incubated for 24 hrs by Western blot analysis relative to control. The test is classed as cell-based.
The test system is the same in test [9]. In words: Protac activity at VHL/EGFR/deletion19 in human HCC827 cells assessed as induction of EGFR degradation at 30 nM incubated for 24 hrs by Western blot analysis relative to control. The test is classed as cell-based.
The test system of test [10] is A-431. Briefly: Antiproliferative activity against human A-431 cells expressing EGFR wildtype assessed as inhibition of cell proliferation incubated for 72 hrs by MTT assay. The test is classed as functional, cell-based. The note with it: A-431, 72 h.
For test [11], the target named is von Hippel-Lindau disease tumor suppressor/Epidermal growth factor receptor (Homo sapiens, UniProt P00533+P40337, L858R/T790M). In words: Protac activity at VHL/EGFR L858R/T790M mutant (unknown origin) assessed as inhibition of EGFR incubated for 40 mins in presence of ATP by Kinase Glo luminescence assay. The test is classed as protein assay. (In general: Kinase-Glo reads ATP consumption through a luciferase reaction.)

In general, IC50 refers to the concentration needed to halve the response being measured.

As for `C=CC(=O)Nc1cc(Nc2nccc(-c3cn(C)c4ccccc34)n2)c(OC)cc1N(CCCCCCC(=O)NCCOCCOCC(=O)N[C@H](C(=O)N1C[C@H](O)C[C@H]1C(=O)NCc1ccc(-c2scnc2C)cc1)C(C)(C)C)CCN(C)C`, the Activity in test [1] is less than 20%; in test [4], less than 20%; in [5] it was 23%; in test [6], 25%. Further, the results for the IC50 in test [2] and in test [3] were 800 nM and 683 nM, respectively.
`C=CC(=O)N1CCC(n2c(Nc3ccccc3)nc3cnc(Nc4ccc(N5CCN(C)CC5)nc4)nc32)CC1`: the IC50 in test [2] turned out to be 290 nM; in test [3], 3.05 nM.
The matching figures for `CN1CCN(c2ccc(Nc3ncc4nc(Nc5ccccc5)n(C5CCCC5)c4n3)cc2)CC1`: 342 nM and 0.93 nM.
For the compound `C=CC(=O)N1CCC[C@H](n2c(Nc3ccccc3)nc3cnc(Nc4ccc(N5CCN(CC(=O)NCCOCCOCC(=O)N[C@H](C(=O)N6C[C@H](O)C[C@H]6C(=O)NCc6ccc(-c7scnc7C)cc6)C(C)(C)C)CC5)cc4)nc32)C1`, the Activity in [1] was less than 20%; in [7] it was less than 20%; in [8], 50%; in test [9], 57%. Besides, the concentration for half-maximal inhibition (IC50) in [2] came to 282 nM; in test [3] it was 59.6 nM.
With `C=CC(=O)Nc1cc(Nc2nccc(-c3cn(C)c4ccccc34)n2)c(OC)cc1N(CCCCCCC(=O)NCCCCCCC(=O)N[C@H](C(=O)N1C[C@H](O)C[C@H]1C(=O)NCc1ccc(-c2scnc2C)cc1)C(C)(C)C)CCN(C)C`, the Activity in [1], in test [4], in test [5] and in [6] was less than 20% throughout. Moreover, the IC50 was determined as 730 nM in test [2] and 110 nM in test [3].
Regarding `C=CC(=O)N1CCC[C@@H](n2c(Nc3ccccc3)nc3cnc(Nc4ccc(N5CCN(C)CC5)cc4)nc32)C1`, the IC50 in test [2] is 266 nM; in test [3] it was 1.77 nM.
`COc1cc(N(C)CCN(C)C)c(NC(=O)/C=C/CN(C)CCCCCCCCCC(=O)N[C@H](C(=O)N2C[C@H](O)C[C@H]2C(=O)NCc2ccc(-c3scnc3C)cc2)C(C)(C)C)cc1Nc1nccc(-c2cn(C)c3ccccc23)n1`: the Activity in test [1] is less than 20%; in test [4], less than 20%; in [5] it was less than 20%; in test [6] it was 30%. Moreover, the IC50 in [2] came out at 985 nM; in test [3], 61 nM; in test [10], 840 nM.
With `COc1cc(N2CCN(CC(=O)NCCCCCCC(=O)N[C@H](C(=O)N3C[C@H](O)C[C@H]3C(=O)NCc3ccc(-c4scnc4C)cc3)C(C)(C)C)CC2)c(NC(=O)/C(C#N)=C/C2CC2)cc1Nc1nccc(-c2cn(C)c3ccccc23)n1`, the IC50 in test [11], in test [2] and in test [3] was more than 10000 nM throughout.
Consider `C=CC(=O)Nc1cc(Nc2nccc(-c3cn(C)c4ccccc34)n2)c(OC)cc1N(C)CCN(C)CC(=O)NCCOCCOCC(=O)N[C@H](C(=O)N1C[C@H](O)C[C@H]1C(=O)NCc1ccc(-c2scnc2C)cc1)C(C)(C)C`, for which the IC50 in [2] was 2370 nM; in test [3], 768 nM.
`COc1cc(N2CCN(CC(=O)NCCCCCCC(=O)N[C@H](C(=O)N3C[C@H](O)C[C@H]3C(=O)NCc3ccc(-c4scnc4C)cc3)C(C)(C)C)CC2)c(NC(=O)/C(C#N)=C/c2ccncc2)cc1Nc1nccc(-c2cn(C)c3ccccc23)n1`: the IC50 in test [11], in test [2] and in test [3] was more than 10000 nM in each case.
In the case of `C=CC(=O)N1CCC[C@H](n2c(Nc3ccccc3)nc3cnc(Nc4ccc(N5CCN(CCCCCCC(=O)N[C@H](C(=O)N6C[C@H](O)C[C@H]6C(=O)NCc6ccc(-c7scnc7C)cc6)C(C)(C)C)CC5)cc4)nc32)C1`, the Activity in [1] is 69%; in test [7], 49%; in test [8], 62%; in [9], 70%. Also, the figures for the IC50 in test [2], in [3] and in [10] were 40 nM, 1.67 nM and more than 10000 nM, respectively.
As for `C=CC(=O)Nc1cccc(-n2c(Nc3ccccc3)nc3cnc(Nc4ccc(N5CCN(C)CC5)cc4)nc32)c1`, the IC50 came out at 41 nM in test [2] and 0.38 nM in [3].
For the compound `C=CC(=O)N1CCC[C@H](n2c(Nc3ccccc3)nc3cnc(Nc4ccc(N5CCN(CC(=O)NCCCCCCC(=O)N[C@H](C(=O)N6C[C@H](O)C[C@H]6C(=O)NCc6ccc(-c7scnc7C)cc6)C(C)(C)C)CC5)cc4)nc32)C1`, the Activity in test [1] is less than 20%; in test [7], less than 20%; in test [8], 63%; in test [9], 77%. Moreover, the IC50 was 127 nM in test [2] and 8.93 nM in test [3].
As for `COc1cc(N(C)CCN(C)C)c(NC(=O)/C=C/CN(C)CCN(C)C(=O)CCCCCCC(=O)N[C@H](C(=O)N2C[C@H](O)C[C@H]2C(=O)NCc2ccc(-c3scnc3C)cc2)C(C)(C)C)cc1Nc1nccc(-c2cn(C)c3ccccc23)n1`, the Activity in test [1] is less than 20%; in test [4], less than 20%; in test [5], less than 20%; in test [6], 24%. Also, the IC50 in test [2] is 1690 nM; in test [3] it was 130 nM; in [10], more than 10000 nM.
Take `COc1cc(N(C)CCN(C)C)c(NC(=O)/C=C/CN(C)CCN(C)C(=O)CCCCCC(=O)N[C@H](C(=O)N2C[C@H](O)C[C@H]2C(=O)NCc2ccc(-c3scnc3C)cc2)C(C)(C)C)cc1Nc1nccc(-c2cn(C)c3ccccc23)n1`: the Activity in test [1] is less than 20%; in [4], less than 20%; in [5] it was less than 20%; in test [6] it was 25%. Also, the results for the IC50 in test [2] and in test [3] were 1470 nM and 140 nM, respectively.
Regarding `C=CC(=O)Nc1cc(Nc2nccc(-c3cn(C)c4ccccc34)n2)c(OC)cc1N(CCCCCCC(=O)N[C@H](C(=O)N1C[C@H](O)C[C@H]1C(=O)NCc1ccc(-c2scnc2C)cc1)C(C)(C)C)CCN(C)C`, the Activity in test [1] is less than 20%; in test [4] it was less than 20%; in test [5], less than 28%; in test [6], 34%. In addition, the IC50 in [2] came to 760 nM; in test [3] it was 75 nM; in [10], 1550 nM.
Take `C=CC(=O)N1CCC(n2c(Nc3ccccc3)nc3cnc(Nc4ccc(N5CCN(C)CC5)cc4)nc32)CC1`: the IC50 in test [2] turned out to be 360 nM; in [3] it was 2.19 nM.
Regarding `COc1cc(N(C)CCN(C)C)c(NC(=O)/C=C/CN(C)CCCCCCCC(=O)N[C@H](C(=O)N2C[C@H](O)C[C@H]2C(=O)NCc2ccc(-c3scnc3C)cc2)C(C)(C)C)cc1Nc1nccc(-c2cn(C)c3ccccc23)n1`, the Activity in [1] is less than 20%; in test [4], less than 20%; in test [5] it was less than 20%; in [6] it was 25%. Further, the results for the IC50 in test [2] and in test [3] were 640 nM and 67 nM, respectively.
Consider `C=CC(=O)N1CCC[C@H](n2c(Nc3ccccc3)nc3cnc(Nc4ccc(N5CCN(CC(=O)NCCCCCC(=O)N[C@H](C(=O)N6C[C@H](O)C[C@H]6C(=O)NCc6ccc(-c7scnc7C)cc6)C(C)(C)C)CC5)cc4)nc32)C1`, for which the Activity is 23% in [1], less than 20% in test [7], 46% in test [8] and 60% in test [9]. In addition, the IC50 is 250 nM in test [2] and 36.5 nM in [3].
In the case of `COc1cc(N2CCN(C)CC2)c(NC(=O)/C(C#N)=C/C(C)(C)NC(=O)CCCCCC(=O)N[C@H](C(=O)N2C[C@H](O)C[C@H]2C(=O)NCc2ccc(-c3scnc3C)cc2)C(C)(C)C)cc1Nc1nccc(-c2cn(C)c3ccccc23)n1`, the IC50 is more than 10000 nM in test [11], 5790 nM in test [2] and 1390 nM in test [3].
Consider `C=CC(=O)N1CCC[C@H](n2c(Nc3ccccc3)nc3cnc(Nc4ccc(N5CCN(CCCCCCCC(=O)N[C@H](C(=O)N6C[C@@H](O)C[C@H]6C(=O)N[C@@H](C)c6ccc(-c7scnc7C)cc6)C(C)(C)C)CC5)cc4)nc32)C1`, for which the IC50 in test [2] is 41 nM; in [3], 1.83 nM.
The matching figures for `COc1cc(N(C)CCN(C)C)c(NC(=O)/C=C/CN(C)CCN(C)C(=O)CCCC(=O)N[C@H](C(=O)N2C[C@H](O)C[C@H]2C(=O)NCc2ccc(-c3scnc3C)cc2)C(C)(C)C)cc1Nc1nccc(-c2cn(C)c3ccccc23)n1`: 2760 nM and 150 nM.
The matching figures for `C=CC(=O)N1CC[C@@H](n2c(Nc3ccccc3)nc3cnc(Nc4ccc(N5CCN(C)CC5)cc4)nc32)C1`: 290 nM and 1.16 nM.
The matching figures for `CCC(=O)N1CCC[C@H](n2c(Nc3ccccc3)nc3cnc(Nc4ccc(N5CCN(C)CC5)cc4)nc32)C1`: 1170 nM and 2.48 nM.
